Literature values in patent publication US5043321A, “Adrenocorticotropin release inhibiting factor” (Center for Innovative Technology, priority 1988, dated 1991).
No end group written: not given here.

Assays:
[1] = test system: hemorrhage induced corticosterone secretion; conditions: Hattori et al
[2] = test system: rat anterior pituitary gland; conditions: Okajima et al

Row | Substance | effect on hemorrhage induced corticosterone secretion in vivo [1] | effect on plasma ACTH ([1]; preliminary study) | most effective concentration for inhibition of ACTH secretion [2] | effect on CRF induced ACTH secretion ([2]; rat anterior pituitary gland in vitro)
1 | alpha-hANP: alpha-hANP (presumably ANF[1-28]) used by Hattori et al (SLRRSSCFGGRMDRIGAQSGLGCNSFRY; ends and bridges not checked; cysteine pairing not given here; UniProt P01160 124-151, looked up) | no effect | inhibition of plasma ACTH that was not dose dependent | – | –
2 | delta sleep inducing peptide [DSIP] | – | – | 10 nM | inhibits CRF induced ACTH secretion
